Laboratory results as given in ChEMBL document CHEMBL2311430, “Sirtuins as emerging anti-parasitic targets” (Eur J Med Chem, 2013).
pIC50: −log10 of the molar value. Numbered stars: 1 amine (or outer) side, 2 acyl side, 3 side chain; on linkers, the order of the positions; unused ones are H or OH. Bridge positions count the residues as written; N and C are the ends. Square brackets hold non-standard residues; d marks the D form. Peptide text beside a SMILES is read from it. X1 = CC(C)CCCCCCCCC[C@H](CC(=O)[*:1])O[*:2]

Target: T1, Putative silent information regulator 2 (Leishmania infantum, UniProt A0A6L0XH39)
T1 sequence (A0A6L0XH39 whole entry): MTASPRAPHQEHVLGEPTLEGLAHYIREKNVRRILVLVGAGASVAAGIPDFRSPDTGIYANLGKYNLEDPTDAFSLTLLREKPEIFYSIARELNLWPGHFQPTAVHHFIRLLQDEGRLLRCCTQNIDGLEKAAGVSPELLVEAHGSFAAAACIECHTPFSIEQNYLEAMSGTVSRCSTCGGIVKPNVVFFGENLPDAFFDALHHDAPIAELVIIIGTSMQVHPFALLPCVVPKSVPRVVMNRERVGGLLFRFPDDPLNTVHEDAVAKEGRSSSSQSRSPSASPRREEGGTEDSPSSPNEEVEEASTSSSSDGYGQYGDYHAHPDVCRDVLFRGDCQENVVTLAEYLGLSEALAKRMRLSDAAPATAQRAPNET
Assay: Inhibition of Leishmania infantum SIR2RP1
`O=C1c2cccc3cccc(c23)C(=O)N1CCCNCCCCCCCCCNCCCN1C(=O)c2cccc3cccc(c23)C1=O` [BNIPDANON] gave a pIC50 of 5.24.
For `O=C1c2cccc3cccc(c23)C(=O)N1CCCNCCCCCCCCNCCCN1C(=O)c2cccc3cccc(c23)C1=O` [BNIPDAOCT], the pIC50 was 5.04.
`NC(=O)c1cccnc1` [NIACINAMIDE] gave a pIC50 of 4.40.
For `CC(NC(=O)c1ccccc1/N=C/c1c(O)ccc2ccccc12)c1ccccc1` (stereo unspecified) [SIRTINOL], the pIC50 was 3.71.
Molecule `CC(C)CCCCCCCCC[C@@H]1CC(=O)N[C@@H](CCC(=O)O)C(=O)N[C@@H](CC(C)C)C(=O)N[C@H](CC(C)C)C(=O)N[C@@H](C(C)C)C(=O)N[C@@H](CC(=O)O)C(=O)N[C@H](CC(C)C)C(=O)N[C@@H](CC(C)C)C(=O)O1` [SURFACTIN] (EL[dL]VD[dL]L; linker N-C via X1) has a pIC50 of 4.45.

Tested on: not listed separately
Assay: Inhibition of Plasmodium falciparum NAD-dependent protein deacetylase Sir2A
In the case of `NC(=O)c1cccnc1` [NIACINAMIDE], the pIC50 was 4.29.
